Data reported in ChEMBL document CHEMBL4406816, “Role of sulphur-heterocycles in medicinal chemistry: An update” (Eur J Med Chem, 2019).
In brackets after ≈: the same amount, converted by molar mass.

Tested on: Mycobacterium tuberculosis variant bovis
Test: Antitubercular activity against Mycobacterium bovis
Type: functional

Compound: Fc1ccc(-c2cn(Cc3csc(-c4ccccc4)n3)nn2)cc1
- MIC: 1.69 µg/mL (≈ 5.02 µM)
